Assay results reported in PMC6104039 (Nature Communications, 2018).
“Also recorded” adds a separate entry of the source. Values belong to the compound of their own block, whether it stands above or below them.

How the values were obtained:
[1] = target: recombinant human sphingosine kinase 1 (Homo sapiens, UniProt Q9NYA1); details: 10 μM
Protocol: Sphingosine kinase assays were performed using fluorescent NBD-dihydrosphingosine[63],[64]. […] Reactions were stopped with 100 μL methanol, and 5 μL amounts were resolved on Silica Gel 60 thin layer chromatography (TLC) plates using butanol:acetic acid:water (3:1:1). The fluorescent NBD-dihydrosphingosine 1-phosphate band was quantified using a BioRad ChemiDoc imaging system with excitation by UV light.
Supplementary Figure 2. […] Activity of recombinant
human sphingosine kinases 1 and 2 (SphK1 and 2) was assessed in the presence of 10 µM
Activity is expressed as a percentage of the vehicle control.

[2] = system: C57BL6/J mice; test: Hyperinsulinemic-euglycemic clamps; assay type: in vivo; details: 5 mg/kg, chow or HFD
Protocol: At 5 weeks of diet/drug treatment, mice underwent surgery to implant catheters into the left carotid artery and right jugular vein. Catheters were flushed every 1–2 days with heparinised saline to maintain patency. Approximately 6–8 days post surgery, and after a ~5 h fast, a hyperinsulinemic-euglycemic clamp was conducted. Mice were conscious, unrestrained and were not handled during the procedure to minimize stress. At −90 min, a primed (5 μCi) continuous infusion (0.05 μCi/min) of [3,^3H]-glucose (PerkinElmer) was commenced. Samples were collected at −30, −20, −10 and 0 min for basal glucose turnover (Rd) determination. […] Once blood glucose was stable, four sequential samples were taken to determine insulin-stimulated glucose turnover. A bolus of 2[^14C]deoxyglucose (10 μCi; PerkinElmer) was then administered and blood sampled at 2, 5, 10, 15, 20 and 30 min, prior to collection of muscles for determination of glucose uptake.

[3] = system: permeabilised extensor digitorum longus muscle fibres; test: Respiratory complex activities in permeabilized extensor digitorum longus muscle fibres; assay type: in vivo, mice; details: three weeks, 5 mg/kg
Protocol: Permeabilized extensor digitorum longus (EDL) fibres were prepared and mitochondrial function analyzed according to published protocols with some modifications[71],[72]. Briefly, EDL muscles were dissected tendon-to-tendon into ice-cold isolation buffer A (10 mM Ca-EGTA buffer, 20 mM imidazole, 20 mM taurine, 49 mM K-MES, 3 mM K2HPO4, 9.5 mM MgCl2, 5.7 mM ATP, 15 mM phosphocreatine, 1 μM leupeptin, pH 7.1) and fibres were prepared immediately. Fibre bundles (~3 mg wet weight) were treated with saponin (50 μg/mL) for 20 min at 4 °C and subsequently washed in cold respiration medium B (0.5 mM EGTA, 3 mM MgCl2.6H2O, 20 mM taurine, 10 mM KH2PO4, 20 mM HEPES, 0.1% BSA, 15 mM potassium-lactobionate, 110 mM mannitol, 0.3 mM dithiothreitol, pH 7.1). […] Fibres were recovered after polarography and results were expressed as nmoles of O2/min/mg of tissue. Mitochondrial membrane integrity was verified by cytochrome c release test[71],[72].

[4] = system: SkM; test: Real-time PCR of respiratory complex subunits and regulators of mitochondrial biogenesis in SkM; assay type: in vivo, mice
Protocol: PCR (40 cycles) was performed on a LightCycler 480 (Roche) using SensiFAST SYBR mastermix (Bioline). For quantification of CerS1 and CerS2 expression, total RNA was purified from mouse tissues with TRIzol reagent (Sigma-Aldrich), followed by DNase treatment (Promega), and reverse transcribed using random hexamer primers with FirstStrand cDNA synthesis kit (Roche), according to manufacturer’s instructions. CerS1 and CerS2 gene expression was determined using a standard curve of Ct against input cDNA, and normalised to 18s RNA. For mitochondrial genes and transcriptional regulators in SkM, total RNA was prepared with TRIzol, and oligo dT primer was used for reverse transcription. Relative gene expression was determined using the ΔΔCt method, with 36B4 and Rpl13 as the reference genes. Samples with excessively high Ct values (Ct > 30 for the housekeeping genes) were removed from data analysis (two samples for Fig. 6a, four samples for Fig. 6g). Gene-specific primers were as follows: […]

[5] = system: cortical neuron cultures; test: Live-cell ceramide synthase assay: deuterated ceramide from D7-dihydrosphingosine; details: two hour pre-treatment
Protocol: Mouse cortical neurons were prepared from E16 pups[65] and seeded at 5 × 10^6 cells/well in poly-D-lysine coated six-well plates. Two weeks after seeding, neurons were pre-treated for 2 h with P053, then incubated for a further 1 h with 1 μM deuterated dihydrosphingosine (D7-dhSph). Lipid extraction and quantification of D7-ceramide using liquid chromatography-tandem mass spectrometry (LC-MS/MS)[34] is described below.
Targeted quantification of ceramide, HexCer, and SM species in primary neurons, HEK293 cells, mouse brain, and gastrocnemius muscle lipid extracts was performed by LC-MS/MS on a TSQ Access triple quadrupole mass spectrometer (Thermo Fisher Scientific)[69]. Lipids were separated on a 3 × 150 mm Agilent XDB-C8 column (5 μM pore size) with a 10 min isocratic chromatography run using methanol containing 0.2% formic acid as the mobile phase. Precursor ions were the precise [M + H] species for each lipid. […] Deuterated (D7) ceramides were detected as the corresponding m/z + 7 ions.

[6] = target: T1, CerS1 (Homo sapiens, UniProt P27544); test: CerS1 activity as a function of substrate concentration (Vmax, Khalf, mode of inhibition); assay type: biochemical; design: expressed in transfected cells; details: dihydrosphingosine and C18:0-CoA substrates
T1 sequence (P27544 1-350): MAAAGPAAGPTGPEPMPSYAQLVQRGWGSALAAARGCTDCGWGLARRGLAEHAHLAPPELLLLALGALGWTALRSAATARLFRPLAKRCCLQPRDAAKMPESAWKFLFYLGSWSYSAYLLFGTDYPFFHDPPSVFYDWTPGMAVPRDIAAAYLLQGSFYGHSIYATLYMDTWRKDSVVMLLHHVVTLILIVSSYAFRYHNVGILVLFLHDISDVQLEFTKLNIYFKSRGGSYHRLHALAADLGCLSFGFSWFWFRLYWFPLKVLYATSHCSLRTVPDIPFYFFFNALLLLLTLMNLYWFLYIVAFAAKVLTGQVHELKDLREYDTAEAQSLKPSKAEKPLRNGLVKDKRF

[7] = system: SkM homogenates; test: 14C-palmitate oxidation in SkM homogenates of treated mice; assay type: in vivo; details: chow and HFD-fed mice, 6 weeks
Protocol: Tibialis muscles were homogenized in 19 volumes of 250 mM sucrose, 10 mM Tris-HCl and 1 mM EDTA, pH 7.4.

[8] = system: C57BL6/J mice; test: Oral glucose tolerance test with labelled glucose and fasting insulin; assay type: in vivo; details: 5 mg/kg, chow or HFD
Protocol: Mice were fasted for 6 h, then received 50 mg stable isotope-labeled glucose (6,6-^2H glucose, Sigma Aldrich) by oral gavage. Blood glucose was measured with a glucose meter (Accu-Check, Roche, NSW, Australia) prior to and at 15, 30, 45, 60 and 90 min following gavage. Additional blood (~10 μL) was collected from the tail tip prior to and at 15 and 60 min following glucose gavage. These samples were used to perform mass isotopologue analysis of plasma glucose via gas chromatography–mass spectrometry (GC–MS)[70]. Specifically, plasma glucose was separated into the labelled glucose load and the endogenous (liver/kidney-derived) unlabelled glucose to permit differentiation of glucose disposal from endogenous glucose production (Supplementary Figure 10). Fasting blood insulin was measured using an Ultrasensitive Mouse Insulin ELISA Kit (Crystal Chem, Illinois, USA). […]
endogenous glucose synthesis. Plasma concentration of (a) labelled glucose resulting from an oral glucose load, and (b) endogenous glucose, during the oral glucose tolerance test. Mice

[9] = system: soleus muscles; test: 14C-palmitate oxidation and incorporation into TAG in isolated soleus muscles of treated mice; assay type: in vivo
Protocol: (§1) After a 30 min pre-incubation, muscles were transferred into vials containing 0.5 mCi/mL of [1-^14C]-palmitate in modified Krebs-Henseleit buffer for another 1 h. The reaction was stopped by removal of the muscles and addition of 1 M perchloric acid to the reaction mixture. ^14C-labelled CO2 was quantified as described above. The muscles were blotted dry and snap frozen in liquid nitrogen for subsequent lipid extraction and TLC. Muscles were homogenized using a Polytron (Kinematica, Littau-Lucerne, Switzerland) in 1.5 mL 2:1 chloroform-methanol (v/v). […] The upper aqueous phase was used to quantify ASM, and the lower organic phase was collected and dried under stream of N2, then reconstituted in hexane and spotted on a Silica Gel 60 F254 TLC plate. The TLC plate was developed in hexane/diethyl ether/glacial acetic acid (85:15:1), then air dried. TAG bands were visualised using iodine vapour staining, using an external standard to mark their position, then scraped into vials and quantified by liquid scintillation counting.

[10] = system: soleus muscle strips; test: Palmitate oxidation in soleus muscle strips pre-treated in vitro; design: species or system mice; details: 1.5 h in vitro, 1 μM
Protocol: as §1

recombinant human sphingosine kinase 1, sequence (Q9NYA1 whole entry): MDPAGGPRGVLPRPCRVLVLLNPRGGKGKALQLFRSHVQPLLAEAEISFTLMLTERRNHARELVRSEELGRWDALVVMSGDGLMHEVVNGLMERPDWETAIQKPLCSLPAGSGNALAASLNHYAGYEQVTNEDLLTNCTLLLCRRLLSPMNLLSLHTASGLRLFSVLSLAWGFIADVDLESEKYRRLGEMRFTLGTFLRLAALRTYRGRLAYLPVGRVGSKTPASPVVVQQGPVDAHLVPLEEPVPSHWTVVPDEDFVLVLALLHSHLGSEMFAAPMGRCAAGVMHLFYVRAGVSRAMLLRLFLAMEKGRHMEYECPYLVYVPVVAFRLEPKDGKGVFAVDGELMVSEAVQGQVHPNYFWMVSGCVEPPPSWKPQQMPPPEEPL

Structure (SMILES): C[C@@](N)(CO)CCc1ccc(OCc2ccccc2)cc1 [G024, (2S)-2-amino-4-(4′-benzyloxyphenyl)-2-methyl-1-butanol]
melting point: 196.7 to 197.6 °C

mode of inhibition [6]: non-competitive inhibitor
Structure (SMILES): C[C@@](N)(CO)CCc1ccc(OCc2ccc(Cl)c(Cl)c2)cc1 [P053, (S)-2-amino-4-(4-(3,4-dichlorobenzyloxy)phenyl)-2-methylbutan-1-ol]
reduction in sphingosine kinase 1 activity [1]: did not inhibit; also recorded: does not inhibit; also recorded: no inhibitory activity
glucose infusion rate, peripheral glucose disposal, insulin-stimulated glucose uptake in SkM [2]: no impact
complex II activity [3]: trend for an increase
respiratory activity with complex I and IV substrates [3]: significant increase
expression of Gabp1α and Nfe2l2 [4]: significantly increased
genes encoding respiratory complex subunits (Co-2, Cytb, Atp6, Ndufb5, Atp5o, Cycs, Cox5b) [4]: significant up-regulation
de novo C18:0 ceramide synthesis from deuterated dihydrosphingosine [5]: dose-dependent inhibition
oxidation of 14C-palmitate in muscle homogenates [7]: increased oxidation
fasting insulin and glucose tolerance [8]: no impact
iAUC for the labelled glucose load [8]: no effect
oxidation of 14C-palmitate in soleus muscles ([9]; 2 weeks, 5 mg/kg): significantly increased
incorporation of 14C-palmitate into TAG ([9]; 2 weeks, 5 mg/kg, 1 h incubation): unchanged
increase of the rate of palmitate oxidation in muscle ([9]; P053 treatment): 23%
palmitate oxidation [10]: not affected
